Experimental data published in article PMC8467576, “Novel Ubiquitin Specific Protease-13 Inhibitors Alleviate Neurodegenerative Pathology” (Metabolites, 2021).

Assays:
Nissl+ cells = assay: Nissl staining neuron counts in TgA53T mice; format: in vivo, mouse; conditions: 40 mg/Kg I.P. daily for 7 days, vs DMSO
Procedure: BK50118-C is one of novel small molecule inhibitors of USP13 synthesized in our laboratory. For BK50118-C treatment, approximately 15 months old (±1 month) male and female TgA53T mice were treated with intraperitoneal injection of vehicle (DMSO) or BK50118-C at the daily dosage of 10 mg/Kg or 40 mg/Kg for 7 days. Animals were age and sex-matched in their respective treatment cohorts. All animals were sacrificed after treatment. All experiments were conducted in full compliance with the recommendations of Georgetown University Animal Care and Use Committee. These experiments were conducted under animal protocol No. 2016-1194 titled, Misfolded Protein Clearance in Neurodegeneration, which was approved by the Georgetown University IACUC. Protocol Information: IACUC Protocol Number: 2016-1194. Protocol Approval Date: 14 September 2020 Expiration Date: 14 September 2023.
Nissl staining was performed using FD Cresyl Violet Solution™ Regular Strength (FD NeuroTechnologies, Cat PS102-01, Columbia, MD, USA) as per manufacturer’s instructions. Silver staining was performed using FD NeuroSilver™ (FD NeuroTechnologies, Cat PK301,) as per manufacturer’s instructions.
Suppl Figure S3. BK50118-C improved cell survivals in TgA53T mice. Male and female TgA53T mice were treated with intraperitoneal injection of vehicle or BK50118-C at the daily dosage of 40 mg/Kg for 7 days. […]
substantia nigra (SN) H) compared to corresponding vehicles A), D) and G), verified […]
(1 picture or pasted object on this page, not shown here) […]
by quantification of Nissl+ cells in cortex C), striatum F) and SN I). Asterisk indicates statistic significant difference vs vehicle. * p<0.05 vs vehicle. Two-tailed student’s t test was used for analysis. N=3-4 mice per group. All values presented as Mean±SD.

[1] = tested on: tyrosine hydroxylase (TH); assay: Tyrosine hydroxylase staining in striatum of TgA53T mice; format: in vivo, mouse; conditions: 40 mg/Kg I.P. daily for 7 days, vs DMSO
Excerpt: To ascertain the mechanistic effects of BK50118-C on alpha-synuclein clearance, we performed immunostaining in striatum of TgA53T mice. […] We also performed the staining of tyrosine hydroxylase (TH) in the striatum of TgA53T mice. TH is the enzyme responsible for catalyzing the rate limiting step in synthesis of L-3,4-dihydroxyphenylalanine(L-DOPA) which is a precursor for dopamine (DA). Staining of TH will help to evaluate the status of DA producing neurons in the SN and their terminals in the striatum.
BK50118-C is one of novel small molecule inhibitors of USP13 synthesized in our laboratory. For BK50118-C treatment, approximately 15 months old (±1 month) male and female TgA53T mice were treated with intraperitoneal injection of vehicle (DMSO) or BK50118-C at the daily dosage of 10 mg/Kg or 40 mg/Kg for 7 days. Animals were age and sex-matched in their respective treatment cohorts. All animals were sacrificed after treatment. […]
Immunohistochemistry was performed on the 20 µm thick brain sections for evaluation of ubiquitination of alpha-synuclein. […] The optic densitometry of co-localization of ubiquitin with alpha-synuclein was measured using Image J. Tyrosine hydroxylase (TH) is the limiting enzyme in DA synthesis, so probing for TH+ neurons will help to evaluate the status of DA producing neurons in the SN and their terminals in the striatum. […]

## Fc1ccc2nccc(OCc3ccccc3)c2c1 [BK50118-C, 4-benzyloxy-6-fluoroquinoline]
Nissl+ cells; cortex
  neuron counts (Nissl+ cells): significantly increased
Nissl+ cells; striatum
  neuron counts (Nissl+ cells): significantly increased
Nissl+ cells; substantia nigra (SN)
  neuron counts (Nissl+ cells): significantly increased
[1]
  tyrosine hydroxylase (TH) staining: did not show any noticeable effects
